A short description of data set [1]: mn = molality of the nth substance listed, in mol/kg. The note with it: 101.3 kPa, Liquid; for viscosity: Capillary tube (Ostwald / Ubbelohde) method; for mass density: Pycnometric method.
For data set [2] the following is noted: 101.3 kPa, Liquid, Capillary tube (Ostwald / Ubbelohde) method.

Numbers after ± are expanded uncertainties.

As a reminder, the viscosity is the internal friction of a fluid under shear. Broadly, the mass density is the mass of a sample divided by its volume.

`[Cl-].[Na+]` [sodium chloride] + O: the viscosity in data set [1] (288.15 K, m1 = 0.06) turned out to be 1.146 ± 0.024 mPa·s; in data set [1] (298.15 K, m1 = 0.06), 0.896 ± 0.019 mPa·s; in data set [1] (308.15 K, m1 = 0.06), 0.7233 ± 0.015 mPa·s. The mass density worked out at 1001.64 ± 0.45 kg/m3 in data set [1] (288.15 K, m1 = 0.06) and 999.52 ± 0.45 kg/m3 in data set [1] (298.15 K, m1 = 0.06).
For the compound `O=C[C@H](O)[C@@H](O)[C@H](O)[C@H](O)CO` [D-glucose] + O, the viscosity was 1.174 ± 0.025 mPa·s in data set [1] (288.15 K, m1 = 0.06); 0.9111 ± 0.019 mPa·s in data set [1] (298.15 K, m1 = 0.06); 0.7299 ± 0.015 mPa·s in data set [1] (308.15 K, m1 = 0.06). Also, the mass density was 1003.25 ± 0.45 kg/m3 in data set [1] (288.15 K, m1 = 0.06); 1001.17 ± 0.45 kg/m3 in data set [1] (298.15 K, m1 = 0.06); 998.15 ± 0.48 kg/m3 in data set [1] (308.15 K, m1 = 0.06).
For `O` [water] + CCCC(CCC)C(=O)[O-].[Na+], the viscosity in data set [1] (288.15 K, m2 = 0) is reported as 1.138 ± 0.024 mPa·s; in data set [1] (298.15 K, m2 = 0) it was 0.8903 ± 0.018 mPa·s; in data set [1] (308.15 K, m2 = 0), 0.7195 ± 0.015 mPa·s.
With `O` [water], the results for the viscosity in data set [2] (288.15 K), in data set [2] (298.15 K) and in data set [2] (308.15 K) were 1.138 ± 0.024 mPa·s, 0.8903 ± 0.018 mPa·s and 0.7195 ± 0.015 mPa·s, respectively.
